# Assay results published in ChEMBL document CHEMBL1135428, “A new type of prodrug of catecholamines: an opportunity to improve the treatment of Parkinson's disease” (2002).
# Calls of active or inactive are those of the source. The calls are words filed in the database; no cut-off is given here.
# How the values were obtained:
# [1] = system: Rattus norvegicus; test: Subcutaneously administered dose (in vivo) in male Wistar rats in a striatal microdialysis analysis and its metabolite, 5,6-di-OH-DPAT was found to be present; type: functional
# [2] = system: Rattus norvegicus; test: Dopamine (DA) agonistic activity (% decrease in endogenous dopamine level) after peroral administration at a dose of 1.2 uM/kg; Inactive; type: functional, organism-based
# [3] = system: Rattus norvegicus; test: Dopamine (DA) agonistic activity (% decrease in endogenous dopamine level) after peroral administration at a dose of 0.4 uM/Kg; type: functional
# [4] = system: Rattus norvegicus; test: Dopamine (DA) agonistic activity (% decrease in endogenous dopamine level) after peroral administration at a dose of 1.2 uMl/Kg; type: functional
SMILES,Dose [1] [µM/kg],Decrease [2],Decrease [3] [%],Decrease [4] [%]
CCCN(CCC)[C@@H]1CCC2=C(CCCC2=O)C1,350,inactive,,
CCCN(CCC)[C@H]1CCC2=C(CCCC2=O)C1,35,,50,70
